Experimental data published in PubChem BioAssay AID651761 (The Scripps Research Institute Molecular Screening Center, 2012).
Values joined by “and” are separate entries in the source; they are usually repeats but may differ in a detail not shown here. Equal entries are not always repeated. Active and inactive are the calls of the source. How the calls were made is not given here.

molecular target: Perilipin-5 (Homo sapiens) + 1-acylglycerol-3-phosphate O-acyltransferase ABHD5 (Homo sapiens) (UniProt Q00G26+Q8WTS1); experiment: ABHD5-PLIN5 interaction inhibitors, late-stage follow-up, biochemical, luminescence (AID 651761)
Sequence (Q00G26 whole entry, looked up): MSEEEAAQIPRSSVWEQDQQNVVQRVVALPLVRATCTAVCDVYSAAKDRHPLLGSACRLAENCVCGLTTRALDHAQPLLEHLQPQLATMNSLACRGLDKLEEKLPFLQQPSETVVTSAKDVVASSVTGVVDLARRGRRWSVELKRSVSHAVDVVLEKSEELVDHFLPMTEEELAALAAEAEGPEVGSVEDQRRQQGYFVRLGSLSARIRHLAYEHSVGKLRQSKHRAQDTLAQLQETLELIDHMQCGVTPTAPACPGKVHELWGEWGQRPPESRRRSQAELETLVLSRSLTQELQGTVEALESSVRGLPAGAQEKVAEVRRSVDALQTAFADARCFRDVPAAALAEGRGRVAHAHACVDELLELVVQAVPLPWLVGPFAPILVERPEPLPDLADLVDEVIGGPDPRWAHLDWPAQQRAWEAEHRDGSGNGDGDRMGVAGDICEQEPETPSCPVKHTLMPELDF
Sequence (Q8WTS1 whole entry, looked up): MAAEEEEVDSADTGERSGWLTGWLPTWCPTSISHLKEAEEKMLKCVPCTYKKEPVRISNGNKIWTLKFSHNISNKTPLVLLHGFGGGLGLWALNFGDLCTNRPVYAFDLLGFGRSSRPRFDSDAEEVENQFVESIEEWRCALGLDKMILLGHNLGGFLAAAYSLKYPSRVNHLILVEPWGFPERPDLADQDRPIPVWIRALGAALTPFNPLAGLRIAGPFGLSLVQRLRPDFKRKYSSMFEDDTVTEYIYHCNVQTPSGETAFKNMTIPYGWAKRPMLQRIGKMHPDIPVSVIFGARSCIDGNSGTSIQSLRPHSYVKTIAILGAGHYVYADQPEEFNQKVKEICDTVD

IC50	SMILES
8.02 µM	C=C[C@]1(C)C[C@@H](OC(=O)CSCCN(CC)CC)[C@]2(C)C(C)CC[C@]3(CCC(=O)[C@H]32)[C@@H](C)[C@@H]1O (stereo partly specified)
inactive	COc1ccccc1-c1cc(C(=O)NC2CCN(C)CC2)c2ccc(Cl)c(C)c2n1
5.05 µM	CCOC(=O)c1c(NC(=O)/C=C/C(=O)O)sc(C)c1-c1ccc(C(C)(C)C)cc1
6.48 µM	CC(=O)Nc1ccc(S(=O)(=O)N2c3ccc(F)cc3CCC2C)cc1 (stereo unspecified)
1.34 µM	CCOc1cc(N)c(Cl)cc1C(=O)NCC1CN(Cc2ccc(F)cc2)CCO1 (stereo unspecified)
1.01 µM	CC(CCc1ccco1)NC(=O)CCc1nnc2ccc(NCc3ccccc3Cl)nn12 (stereo unspecified)
inactive	Cc1cc(C)c(NC(=O)CN2CCN3CCCC3C2)c(C)c1 (stereo unspecified)
6.96 µM	COc1ccc(C)c2sc(N(CCN(C)C)C(=O)/C=C/c3cccs3)nc12
4.11 µM	Cc1cc(C)c2nc(NNC(=O)c3ccc(S(=O)(=O)N4CCCC(C)C4)cc3)sc2c1 (stereo unspecified)
inactive	COc1ccc(NC(=S)N(CCCN2CCCC2)Cc2cccn2Cc2ccc(Cl)cc2)cc1Cl
3.02 µM	CCCCNC(=O)Nc1ccc2c(c1)N(C)C(=O)c1ccccc1S2
4.32 µM	Cc1cc(C)c(NC(=O)C[N+](C)(C)CC(O)COc2cccc3ccccc23)c(C)c1 (stereo unspecified)
inactive	CCN(CC)CCNC(=O)c1ccc(NC(=O)c2cn(-c3ccccc3)nc2-c2cccs2)cc1
8.16 µM	CN(C)CCCN(C(=O)CCc1ccccc1)c1nc2ccc(Br)cc2s1
7.42 µM	CCCNC(=O)Nc1ccc2c(c1)N(C)C(=O)c1ccccc1S2
> 39.8 µM (inactive)	CN1CCC(=C2c3ccccc3CC(=O)c3sccc32)CC1
0.619 µM	Cc1ccc2nc3cc([N+](=O)[O-])cc([N+](=O)[O-])c3cc2c1
1.79 µM	CCN(CC)CCC(C)OC(c1ccccc1)c1ccccc1 (stereo unspecified)
2.68 µM	CC(=O)Cc1cc(O)c2ccccc2c1OC(=O)c1ccc(Br)cc1
2.75 µM	Cc1nc2c(o1)CCc1ccccc1C2N1CCN(C)CC1 (stereo unspecified)
8.64 µM	CC1CCN(S(=O)(=O)c2ccc(NC(=O)Cc3cccs3)cc2)CC1
1.44 µM	COc1cc(OC)cc(C(=O)NC(=S)N(Cc2ccccc2)C(C)C)c1
> 39.8 µM (inactive)	CN(C)CCN(Cc1ccco1)c1ccccn1
1.79 µM	CCOC(=O)c1c(NC(C)=O)sc2c1CCC(C=O)=C2Sc1ccccc1
1.11 µM	CCN(CC)CCOc1ccc(/C(=C(/Cl)c2ccccc2)c2ccccc2)cc1

Second part, the compound before the results:

SMILES	IC50
COc1cc(C)c2sc3ccccc3c(=O)c2c1NCCN(C)C	> 39.8 µM (inactive)
CC1CCN(S(=O)(=O)c2ccc(NC(=O)Cc3ccccc3)cc2)CC1	8.77 µM
CN(C)CCCN(C(=O)CCc1ccccc1)c1nc2ccc(Cl)cc2s1	7.07 µM
CC1Sc2ccc(S(=O)(=O)N3CCC(C(=O)NCc4ccc(Cl)cc4)CC3)cc2NC1=O (stereo unspecified)	8.56 µM
NC(=NCCCCCCN=C(N)/N=C(\N)Nc1ccc(Cl)cc1)/N=C(\N)Nc1ccc(Cl)cc1	2.64 µM
O=c1[nH]c(C2CCN(S(=O)(=O)c3ccc(F)cc3)CC2)nc2c1nnn2Cc1ccc2c(c1)OCCO2	inactive
CCN(CC)CCN(CC(=O)Nc1c(C)cc(C)cc1C)C(=O)c1ccccc1	5.67 µM
CN(C)CCOC1(Cc2ccc(F)cc2)CCC(C(C)(C)C)CC1 (stereo unspecified)	> 39.8 µM (inactive)
CC(C)c1ccc(N2C=Nc3ccc(C(C)C)cc3C2)cc1	1.56 µM
CC(=O)Cc1cc(O)c2ccccc2c1OC(=O)c1ccccc1	1.52 µM
O=c1[nH]c(C2CCN(S(=O)(=O)c3ccc(S(=O)(=O)NC4CC4)cc3)CC2)nc2c1nnn2Cc1ccc(F)cc1	3.42 µM
CCCCOC(=O)Nc1cc(C(=O)OC)ccc1C(=O)OC	5.26 µM
CCN(CC)CCOCCOC(=O)C1(c2ccccc2)CCCC1	0.985 µM
O=C(C[n+]1cccc(CNC(=O)c2ccc(OC(F)F)cc2)c1)Nc1cccc(C(F)(F)F)c1	inactive
COCCN(CCOC)c1nc(N)c2c(N)nc3c(c2c1C#N)CC(=O)N3Cc1ccc(Cl)cc1	> 39.8 µM (inactive)
Cc1ccc2c(CC(=O)N3CCN(S(=O)(=O)c4ccc5c(c4)OCCO5)CC3)coc2c1	5 µM and 5.03 µM
CC(=O)Oc1ccc(C23c4ccccc4C2(OC(C)=O)c2cc(OC(C)=O)ccc23)cc1 (stereo unspecified)	> 39.8 µM (inactive)
CC1=CC(C)(C)Nc2ccc(OC(=O)C(C)N3C(=O)c4ccccc4C3=O)cc21 (stereo unspecified)	3.02 µM
FC(F)(F)c1cccc(NC(=S)N(CCCN2CCCC2)Cc2cccn2Cc2ccc(Cl)cc2)c1	inactive
COc1cc2c(cc1OC)C(C)N(CCc1ccc(Cl)cc1)CC2 (stereo unspecified)	inactive
O=C(/C(=C/O)N=Nc1ccc(Cl)cc1)c1ccncc1	9.67 µM
